Patent publication US12498382B2, “Biomarkers for vitiligo” (INCYTE CORPORATION, priority 2019, dated 2025)

System: HaCaT cells
Assay: Normalized expression of target genes in HaCaT cells stimulated with TNFα and IFNγ in presence/absence of JAK inhibitors (QuantiGene Plex)
Format: cell-based, human
Conditions: for MFI, normalized expression of IYK2: gene IYK2; for MFI, normalized expression of IYK2 / MFI, normalized expression of TNF / MFI, normalized expression of VEGFA: HaCaT, normalized to HPRT1, mean ± standard error; for MFI, normalized expression of TNF: gene TNF; for MFI, normalized expression of VEGFA: gene VEGFA
Description: Transformed human keratinocyte (HaCaT) cells were purchased from AddexBio (Catalog #T0020001) and cultured as outlined in Example 5. […] After 48 hours, cell culture media was removed from 24 well plates and replaced with 250 uL of media containing serial diluted drug, then incubated for 15 minutes at 37° C./5% CO2. After drug incubation, 250 uL of combinatory stimulation containing Recombinant Human Interferon gamma (R&D Systems, Catalog #285-IF-100) and Recombinant Human Tumor Necrosis Factor alpha (R&D Systems, Catalog #210-TA-020) was added to plates. The final concentration of Recombinant Human Interferon gamma and Recombinant Human Tumor Necrosis Factor alpha was 25 ng/mL of each cytokine. Cytokine stimulation added to wells containing drug brought the final concentrations for each drug treatment to 25 nM, 50 nM, 100 nM, and 200 nM. Treated plates were mixed by gentle agitation for 30 seconds then incubated for 24 hours at 37° C./5% CO2. At the end of the 24 hour incubation media was immediately removed from each plate.
RNA was isolated from HaCaT cells using the QuantiGene Plex Assay reagents and protocols (Affymetrix, Catalog #QGP-232-M18042302) according to the manufacturer's guidelines. Cells were washed with 1×DPBS then lysed by incubation with provided QuantiGene lysis buffer for 30 minutes at 50-55° C. Cell lysates were incubated for 18-24 hours at 55° C. with capture beads and probe set designed to specifically hybridize to mRNA from targets of interest. Genes included housekeeping genes (e.g., HPRT1 and GAPDH) used for the normalization of the results. After the 18-24 hour incubation signal was amplified utilizing branched DNA methodologies, according to the manufacturer's procedures (Affymetrix, Catalog #QGP-232-M18042302). After hybridization and wash steps assay plate was read on the Luminex 200 and data were expressed as Net Median Fluorescence Intensity. Data was then normalized to the Net Median Fluorescence Intensity of the housekeeping gene HPRT1 (Table 14).

[1] = TNFα+IFNγ 25 ng/mL, Drug Conc 25 nM
[2] = TNFα+IFNγ 25 ng/mL, Drug Conc 50 nM
[3] = TNFα+IFNγ 25 ng/mL, Drug Conc 100 nM
[4] = TNFα+IFNγ 25 ng/mL, Drug Conc 200 nM
[5] = TNFα (25 ng/mL) and IFNγ (25 ng/mL), 1st (lowest, likely 25 nM) of 4 drug conc
[6] = TNFα (25 ng/mL) and IFNγ (25 ng/mL), 2nd (likely 50 nM) of 4 drug conc
[7] = TNFα (25 ng/mL) and IFNγ (25 ng/mL), 3rd (likely 100 nM) of 4 drug conc
[8] = TNFα (25 ng/mL) and IFNγ (25 ng/mL), 4th (highest, likely 200 nM) of 4 drug conc
[9] = drug without TNFα/IFNγ stimulation
[10] = no stimulation, Drug Conc 200 nM

## Cc1n[nH]c(C)c1-c1cnn(C2(CC#N)CN(c3cc(F)c(C(=O)N[C@@H](C)C(F)(F)F)cc3F)C2)c1 [Cpd C, 4-[3-(Cyanomethyl)-3-(3′,5′-dimethyl-1H,1′H-4,4′-bipyrazol-1-yl)azetidin-1-yl]-2,5-difluoro-N-[(1S)-2,2,2-trifluoro-1-methylethyl]benzamide]
[1]
  AREG normalized expression MFI: 703.71 ± 20.69
  CCL17 normalized expression MFI: 2.63 ± 0.4
  CCL18 normalized expression MFI: 2.11 ± 0.28
  FLG normalized expression MFI: 62.5 ± 8.63
  IL6 normalized expression MFI: 135.32 ± 3.36
  IL8 normalized expression MFI: 387.86 ± 17.53
  IL17A normalized expression MFI: 0.87 ± 0.14
  IL22 normalized expression MFI: 1.23 ± 0.21
  IL23A normalized expression MFI: 42.15 ± 1.61
  IL31 normalized expression MFI: 1.52 ± 0.37
  ILIA normalized expression MFI: 1370.52 ± 35.28
  JAK1 normalized expression MFI: 206.29 ± 6.84
  JAK2 normalized expression MFI: 114.94 ± 2.16
  JAK3 normalized expression MFI: 1.02 ± 0.19
  LOR normalized expression MFI: 23.22 ± 10.14
  S100A7 normalized expression MFI: 5.33 ± 1.21
  S100A12 normalized expression MFI: 1.31 ± 0.16
  SERPINB3 normalized expression MFI: 2.58 ± 0.41
  SERPINB4 normalized expression MFI: 3.53 ± 0.5
  STAT1 normalized expression MFI: 3103.89 ± 185.88
  STAT3 normalized expression MFI: 1557.84 ± 58.15
  STAT4 normalized expression MFI: 5.65 ± 0.44
  STAT5A normalized expression MFI: 22.82 ± 1.77
  STAT5B normalized expression MFI: 40.13 ± 1.97
  STAT6 normalized expression MFI: 1020.89 ± 23.57
[2]
  AREG normalized expression MFI: 719.73 ± 30.82
  CCL17 normalized expression MFI: 2.94 ± 0.35
  CCL18 normalized expression MFI: 2.13 ± 0.46
  FLG normalized expression MFI: 59.01 ± 8.69
  IL6 normalized expression MFI: 128.14 ± 6.83
  IL8 normalized expression MFI: 369.89 ± 17.71
  IL17A normalized expression MFI: 1.07 ± 0.16
  IL22 normalized expression MFI: 1.4 ± 0.19
  IL23A normalized expression MFI: 45.16 ± 2.92
  IL31 normalized expression MFI: 1.59 ± 0.33
  ILIA normalized expression MFI: 1308.7 ± 45.12
  JAK1 normalized expression MFI: 194.2 ± 8.24
  JAK2 normalized expression MFI: 107.16 ± 2.86
  JAK3 normalized expression MFI: 0.99 ± 0.16
  LOR normalized expression MFI: 32.81 ± 17.47
  S100A7 normalized expression MFI: 3.62 ± 0.78
  S100A12 normalized expression MFI: 1.18 ± 0.18
  SERPINB3 normalized expression MFI: 2.6 ± 0.69
  SERPINB4 normalized expression MFI: 4.24 ± 1.6
  STAT1 normalized expression MFI: 3049.62 ± 159.5
  STAT3 normalized expression MFI: 1519.61 ± 69.92
  STAT4 normalized expression MFI: 5.41 ± 0.33
  STAT5A normalized expression MFI: 20.71 ± 1.77
  STAT5B normalized expression MFI: 38.42 ± 2.28
  STAT6 normalized expression MFI: 982.62 ± 14.34
[3]
  AREG normalized expression MFI: 669.44 ± 30.13
  CCL17 normalized expression MFI: 3.06 ± 0.47
  CCL18 normalized expression MFI: 2.55 ± 0.87
  FLG normalized expression MFI: 65.04 ± 9.31
  IL6 normalized expression MFI: 112.13 ± 3.37
  IL8 normalized expression MFI: 361.05 ± 16.02
  IL17A normalized expression MFI: 0.89 ± 0.16
  IL22 normalized expression MFI: 1.19 ± 0.2
  IL23A normalized expression MFI: 48.11 ± 1.85
  IL31 normalized expression MFI: 1.49 ± 0.35
  ILIA normalized expression MFI: 1194.29 ± 12.27
  JAK1 normalized expression MFI: 193.28 ± 4.55
  JAK2 normalized expression MFI: 95.51 ± 3.13
  JAK3 normalized expression MFI: 0.99 ± 0.15
  LOR normalized expression MFI: 65.94 ± 37.89
  S100A7 normalized expression MFI: 4.3 ± 1.17
  S100A12 normalized expression MFI: 1.48 ± 0.32
  SERPINB3 normalized expression MFI: 3.63 ± 1.32
  SERPINB4 normalized expression MFI: 7.56 ± 3.67
  STAT1 normalized expression MFI: 3028.93 ± 125.19
  STAT3 normalized expression MFI: 1457.24 ± 54.48
  STAT4 normalized expression MFI: 5.32 ± 0.46
  STAT5A normalized expression MFI: 18.44 ± 1.85
  STAT5B normalized expression MFI: 36.56 ± 1.18
  STAT6 normalized expression MFI: 943.66 ± 25.99
[4]
  AREG normalized expression MFI: 681.68 ± 16.1
  CCL17 normalized expression MFI: 2.59 ± 0.34
  CCL18 normalized expression MFI: 1.74 ± 0.62
  FLG normalized expression MFI: 68.26 ± 8.04
  IL6 normalized expression MFI: 101.17 ± 2.91
  IL8 normalized expression MFI: 350.6 ± 11.85
  IL17A normalized expression MFI: 0.87 ± 0.13
  IL22 normalized expression MFI: 1.14 ± 0.25
  IL23A normalized expression MFI: 51.86 ± 2.95
  IL31 normalized expression MFI: 1.32 ± 0.34
  ILIA normalized expression MFI: 1151.31 ± 20.01
  JAK1 normalized expression MFI: 182.86 ± 4.07
  JAK2 normalized expression MFI: 91.17 ± 2.15
  JAK3 normalized expression MFI: 0.85 ± 0.15
  LOR normalized expression MFI: 37.49 ± 25.57
  S100A7 normalized expression MFI: 3.95 ± 1.14
  S100A12 normalized expression MFI: 1.06 ± 0.2
  SERPINB3 normalized expression MFI: 2.14 ± 0.67
  SERPINB4 normalized expression MFI: 3.54 ± 1.5
  STAT1 normalized expression MFI: 2977.26 ± 166.85
  STAT3 normalized expression MFI: 1483.1 ± 51.73
  STAT4 normalized expression MFI: 5.04 ± 0.36
  STAT5A normalized expression MFI: 17.64 ± 1.46
  STAT5B normalized expression MFI: 36.34 ± 1.97
  STAT6 normalized expression MFI: 966.51 ± 12.3
[5]
  MFI, normalized expression of IYK2: 283.97 ± 8.59
  MFI, normalized expression of TNF: 24.07 ± 1.43
  MFI, normalized expression of VEGFA: 570.27 ± 10.88
[6]
  MFI, normalized expression of IYK2: 273.68 ± 7.44
  MFI, normalized expression of TNF: 26.51 ± 1.84
  MFI, normalized expression of VEGFA: 531.53 ± 11.24
[7]
  MFI, normalized expression of IYK2: 266 ± 6.82
  MFI, normalized expression of TNF: 25.93 ± 1.59
  MFI, normalized expression of VEGFA: 514.04 ± 7.46
[8]
  MFI, normalized expression of IYK2: 263.49 ± 5.05
  MFI, normalized expression of TNF: 24.73 ± 1.29
  MFI, normalized expression of VEGFA: 492.12 ± 8.32
[9]
  MFI, normalized expression of IYK2: 205.57 ± 10.87
  MFI, normalized expression of TNF: 2.19 ± 0.56
  MFI, normalized expression of VEGFA: 199.88 ± 6.52
[10]
  AREG normalized expression MFI: 242.5 ± 16.14
  CCL17 normalized expression MFI: 0.99 ± 0.28
  CCL18 normalized expression MFI: 1.56 ± 0.73
  FLG normalized expression MFI: 211.48 ± 29.55
  IL6 normalized expression MFI: 4.97 ± 0.36
  IL8 normalized expression MFI: 55.48 ± 3.11
  IL17A normalized expression MFI: 0.51 ± 0.1
  IL22 normalized expression MFI: 0.71 ± 0.11
  IL23A normalized expression MFI: 9.42 ± 0.97
  IL31 normalized expression MFI: 0.79 ± 0.2
  ILIA normalized expression MFI: 88.72 ± 5.9
  JAK1 normalized expression MFI: 159.13 ± 7.08
  JAK2 normalized expression MFI: 23.67 ± 0.92
  JAK3 normalized expression MFI: 0.63 ± 0.1
  LOR normalized expression MFI: 19.48 ± 9.66
  S100A7 normalized expression MFI: 4.38 ± 1.15
  S100A12 normalized expression MFI: 0.72 ± 0.18
  SERPINB3 normalized expression MFI: 2.31 ± 0.77
  SERPINB4 normalized expression MFI: 3.37 ± 1.57
  STAT1 normalized expression MFI: 522.12 ± 14.19
  STAT3 normalized expression MFI: 728.97 ± 20.48
  STAT4 normalized expression MFI: 4.01 ± 0.45
  STAT5A normalized expression MFI: 1.44 ± 0.41
  STAT5B normalized expression MFI: 50.91 ± 4.38
  STAT6 normalized expression MFI: 723.56 ± 20.76
